Patent US20090156669A1, “COMBINATION OF ACTIVE INGREDIENTS WITH INSECTICIDAL AND ACARICIDAL PROPERTIES” (Bayer CropScience AG, priority 2006, published 2009)

System: Tetranychus urticae
Experiment: Tetranychus urticae test (OP-resistant, dip application)
Assay type: in vivo
Settings: dip application of infested bush beans (Phaseolus vulgaris), OP-resistant spider mites
Method: Tetranychus urticae—Test (OP-Resistent, Dip Application)
To produce a suitable preparation of active compound, 1 part by weight of active compound is mixed with the stated amounts of solvent and emulsifier, and the concentrate is diluted with water to the desired concentrations.
Busch beans (Phaseolus vulgaris), which are heavily infected by the greenhouse red spider mite (Tetranychus urticae) are dipped into an active compound preparation of the desired concentration.
After the desired period of time, the kill in % is determined. 100% means that all spider mites have been killed; 0% means that none of the spider mites have been killed.

SMILES	Kill in % after 6 d (0.16 ppm) [%]	Kill in % after 6 d (100 ppm) [%]
Cc1cc(C)c(C2=C(OC(=O)CC(C)(C)C)C3(CCCC3)OC2=O)c(C)c1 [spiromesifen]	0	–
CC1(C)[C@H](/C=C(\Cl)C(F)(F)F)[C@@H]1C(=O)O[C@H](C#N)c1cccc(Oc2ccccc2)c1 [gamma-cyhalothrin]	–	65
